Measured values as given in patent US20240199882A1, “THIENYL-DIBENZOAZEPINES AND THEIR DERIVATIVES AS DONORS FOR XANTHENE-BASED SHORT-WAVE INFRARED (SWIR) DYES” (Mississippi State University, priority 2022, published 2024).

Experiments:
[1] = Photophysical properties of the dyes in dichloromethane; format: physicochemical; details: for QY / Stokes Shift / ε / λabs / λem: in dichloromethane (DCM)
Text: The quantum yield (QY) of the dyes decreased as the absorption wavelength increased, which is common to these dyes.

[2] = Absorbance of DSPE-PEG encapsulated and co-encapsulated dyes; format: physicochemical; details: co-encapsulated in DSPE-PEG (rNP-NO) versus separate
Text: The SCR-NO and IR-1061 were encapsulated using DSPE-PEG (a common phospholipids-polymer conjugate) to give NP-SCR-NO and NP-IR-1061, respectively. […] However, when the components were co-encapsulated (rNP-NO, ratiometric NP for NO), there was observed a favorable ˜100 nm red-shift of the SCR-NO λabs into the SWIR region (FIG. 3A). The corresponding change for IR-1061 was minimal (1 nm).

Row | absorption maxima [1] | QY [1] [%] | Stokes Shift [1] | ε [1] | λabs [1] [nm] | λem [1] [nm] | PA brightness value (EC×(1−QY)) ([1]; calculated value) [M⁻¹ cm⁻¹] | red-shift / change of λabs [2] [nm] | SMILES
1 | 1040 | 0.016 | 220 | 0.80 (M^−1cm^−1) × 10^5 | 1040 | 1260 | – | – | CCOC(=O)c1ccccc1C1=c2cc/c(=c3/cc/c(=C4\C=CC(=[N+]5c6ccccc6C=Cc6ccccc65)S4)s3)cc2Oc2cc(-c3ccc(-c4ccc(N5c6ccccc6C=Cc6ccccc65)s4)s3)ccc21 [SCR-3]
2 | 950 | 0.036 | 150 | 1.24 (M^−1cm^−1) × 10^5 | 950 | 1100 | – | – | CCOC(=O)c1ccccc1C1=c2cc/c(=c3/cc4c(s3)=CC(=[N+]3c5ccccc5C=Cc5ccccc53)S4)cc2Oc2cc(-c3cc4sc(N5c6ccccc6C=Cc6ccccc65)cc4s3)ccc21 [SCR-2]
3 | 840 | 0.31 | 110 | 1.20 (M^−1cm^−1) × 10^5 | 840 | 950 | 82800 | – | CCOC(=O)c1ccccc1C1=c2cc/c(=C3/C=CC(=[N+]4c5ccccc5C=Cc5ccccc54)S3)cc2Oc2cc(-c3ccc(N4c5ccccc5C=Cc5ccccc54)s3)ccc21 [SCR-1]
4 | – | – | – | – | – | – | – | 1 | ClC1=C(/C=C/c2cc(-c3ccccc3)[s+]c(-c3ccccc3)c2)CCC/C1=C/C=C1C=C(c2ccccc2)SC(c2ccccc2)=C1.F[B-](F)(F)F [IR-1061]
